From ChEMBL document CHEMBL2074138, “New multidrug-resistance-reversing drugs, MS-209 and SDZ PSC 833” (Cancer Chemother Pharmacol, 1997)

Molecular target: ATP-dependent translocase ABCB1 (Homo sapiens, UniProt P08183)
Assay: TP_TRANSPORTER: increase in Doxorubicin intracellular accumulation (Doxorubicin: 0.05 ug/mL, MS-209: 3 uM) in K562/ADM cells
Type: functional, cell-based
Conditions: k562/adr

Chain of ATP-dependent translocase ABCB1 (P08183 whole entry): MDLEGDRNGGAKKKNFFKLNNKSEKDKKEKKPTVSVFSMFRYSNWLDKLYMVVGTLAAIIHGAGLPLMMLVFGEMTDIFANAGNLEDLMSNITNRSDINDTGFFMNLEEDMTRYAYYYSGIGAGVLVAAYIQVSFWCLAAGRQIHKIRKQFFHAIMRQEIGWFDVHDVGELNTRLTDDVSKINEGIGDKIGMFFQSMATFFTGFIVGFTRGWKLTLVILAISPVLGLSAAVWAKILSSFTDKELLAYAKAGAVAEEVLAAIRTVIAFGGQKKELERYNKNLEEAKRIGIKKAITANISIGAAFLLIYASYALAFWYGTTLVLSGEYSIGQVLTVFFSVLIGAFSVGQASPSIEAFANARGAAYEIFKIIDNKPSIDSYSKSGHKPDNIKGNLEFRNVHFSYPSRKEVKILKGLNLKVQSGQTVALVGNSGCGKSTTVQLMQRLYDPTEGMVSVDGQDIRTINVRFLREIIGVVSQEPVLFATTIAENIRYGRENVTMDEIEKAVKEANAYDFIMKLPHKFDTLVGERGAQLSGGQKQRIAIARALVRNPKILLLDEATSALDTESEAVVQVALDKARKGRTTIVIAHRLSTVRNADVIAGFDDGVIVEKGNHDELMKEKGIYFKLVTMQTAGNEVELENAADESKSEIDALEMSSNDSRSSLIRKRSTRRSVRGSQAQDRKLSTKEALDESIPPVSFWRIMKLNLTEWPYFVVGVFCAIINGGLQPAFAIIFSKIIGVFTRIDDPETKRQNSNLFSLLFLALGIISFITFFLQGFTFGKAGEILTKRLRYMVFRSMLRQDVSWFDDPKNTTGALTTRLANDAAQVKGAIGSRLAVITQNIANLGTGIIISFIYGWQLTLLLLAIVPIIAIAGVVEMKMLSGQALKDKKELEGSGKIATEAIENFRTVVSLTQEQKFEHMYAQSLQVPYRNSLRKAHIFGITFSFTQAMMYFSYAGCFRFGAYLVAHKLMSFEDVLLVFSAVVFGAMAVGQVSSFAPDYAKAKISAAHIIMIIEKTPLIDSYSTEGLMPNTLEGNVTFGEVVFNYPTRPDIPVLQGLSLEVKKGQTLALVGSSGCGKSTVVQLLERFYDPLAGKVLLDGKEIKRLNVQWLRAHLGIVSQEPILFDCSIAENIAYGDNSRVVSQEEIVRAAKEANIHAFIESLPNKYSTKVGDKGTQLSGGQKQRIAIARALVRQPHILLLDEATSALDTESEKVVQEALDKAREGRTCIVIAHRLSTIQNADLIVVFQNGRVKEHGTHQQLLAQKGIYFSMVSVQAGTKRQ

Activity: inhibitor [+]
SMILES: O=C(C(c1ccccc1)c1ccccc1)N1CCN(C[C@@H](O)COc2cccc3ncccc23)CC1
